We go through 8 molecules from patent US20220323406A1, “METHODS AND COMPOSITIONS FOR DIFFERENTIATING STEM CELLS” (Massachusetts Institute of Technology, priority 2019, published 2022).

In experiment [1] the test system is ENR+CD organoids (ISC to Paneth cell differentiation). In words: Primary screen: basal (non-stimulated) lysozyme secretion LYZ.NS, 2.5-D 384-well ENR+CD organoid differentiation. Format: cell-based, mouse. The note with it: primary screen; for Dose.FC.LYZ.NS: FC relative to plate median; for Z.LYZ.NS: standard z score. From the text: (§1) High-throughput screening.

The test system of a further experiment is ENR+CD organoids. In words: Primary screen: ATP (CellTiter-Glo 3D, CTG) cell number/viability, 2.5-D 384-well ENR+CD organoids.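 As to all read-outs here: compounds given at plating and again on day 3 over a 6-day differentiation from ENR+CV stem-cell-enriched precursors, ATP measured on day 6, plate median as control.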 Particulars: primary screen; for Dose.FC.CTG: FC relative to plate median; for Z.CTG: standard z score.
In experiment [2] the test system is ENR+CD organoids (ISC to Paneth cell differentiation). The experiment can be described thus: Primary screen: CCh-stimulated lysozyme secretion LYZ.S, 2.5-D 384-well ENR+CD organoid differentiation. Particulars: primary screen, FC relative to plate median. Format: cell-based, mouse.
Text: as §1

On to `CC(C)N(CCCNC(=O)Nc1ccc(C(C)(C)C)cc1)C[C@H]1O[C@@H](n2cc(Br)c3c(N)ncnc32)[C@H](O)[C@@H]1O` [SGC0946], for which the Dose.FC.LYZ.NS in experiment [1] (dose 0.08 uM) is listed as 0.090 log2 fold change; in experiment [1] (dose 0.40 uM), −0.027 log2 fold change; in experiment [1] (dose 2.00 uM) it was 0.200 log2 fold change; in experiment [1] (dose 10.00 uM), 0.059 log2 fold change. The Z.LYZ.NS in experiment [1] (dose 0.08 uM) is 0.787; in experiment [1] (dose 0.40 uM), −0.236; in experiment [1] (dose 2.00 uM), 1.738; in experiment [1] (dose 10.00 uM), 0.516. Further, the Dose.FC.CTG in the experiment with ENR+CD organoids (dose 0.08 uM) is listed as 0.052 log2 fold change; in the experiment with ENR+CD organoids (dose 0.40 uM) it was −0.122 log2 fold change; in the experiment on ENR+CD organoids (dose 2.00 uM) it was −0.082 log2 fold change; with ENR+CD organoids (dose 10.00 uM) it was −0.142 log2 fold change. Moreover, the Dose.FC.LYZ.S in experiment [2] (dose 0.08 uM) is reported as 0.145 log2 fold change; in experiment [2] (dose 0.40 uM) it was −0.098 log2 fold change; in experiment [2] (dose 2.00 uM) it was 0.220 log2 fold change; in experiment [2] (dose 10.00 uM), 0.065 log2 fold change.
Consider `Cc1cc(Nc2ccc(NC(=O)c3ccc(Nc4ccnc5ccccc45)cc3)cc2)nc(N)n1` [SGI-1027], for which the Dose.FC.LYZ.NS in experiment [1] (dose 0.08 uM) was 0.061 log2 fold change; in experiment [1] (dose 0.40 uM) it was 0.084 log2 fold change; in experiment [1] (dose 2.00 uM), 0.129 log2 fold change; in experiment [1] (dose 10.00 uM), −0.005 log2 fold change. Further, the Z.LYZ.NS in experiment [1] (dose 0.08 uM) is 0.528; in experiment [1] (dose 0.40 uM), 0.735; in experiment [1] (dose 2.00 uM), 1.123; in experiment [1] (dose 10.00 uM) it was −0.046. The Dose.FC.CTG with ENR+CD organoids (dose 0.08 uM) is 0.244 log2 fold change; with ENR+CD organoids (dose 0.40 uM), 0.298 log2 fold change; in the experiment on ENR+CD organoids (dose 2.00 uM), 0.172 log2 fold change; in the experiment with ENR+CD organoids (dose 10.00 uM), 0.052 log2 fold change. For the same molecule, the Z.CTG is on record as 0.583 in the experiment on ENR+CD organoids (dose 0.08 uM), 0.712 with ENR+CD organoids (dose 0.40 uM), 0.412 in the experiment with ENR+CD organoids (dose 2.00 uM) and 0.125 with ENR+CD organoids (dose 10.00 uM). Also, the Dose.FC.LYZ.S in experiment [2] (dose 0.08 uM) is 0.060 log2 fold change; in experiment [2] (dose 0.40 uM) it was 0.145 log2 fold change; in experiment [2] (dose 2.00 uM), 0.094 log2 fold change; in experiment [2] (dose 10.00 uM) it was 0.018 log2 fold change.
`CN1CCC(CNc2ccc3ncc(-c4cccc(OC(F)(F)F)c4)n3n2)CC1` [SGI-1776free base]: the Dose.FC.LYZ.NS is reported as 0.116 log2 fold change in experiment [1] (dose 0.08 uM), 0.042 log2 fold change in experiment [1] (dose 0.40 uM), 0.012 log2 fold change in experiment [1] (dose 2.00 uM) and −0.205 log2 fold change in experiment [1] (dose 10.00 uM). Also, the Z.LYZ.NS in experiment [1] (dose 0.08 uM) was 1.013; in experiment [1] (dose 0.40 uM), 0.362; in experiment [1] (dose 2.00 uM), 0.108; in experiment [1] (dose 10.00 uM), −1.784. The Dose.FC.CTG in the experiment on ENR+CD organoids (dose 0.08 uM) is 0.170 log2 fold change; in the experiment on ENR+CD organoids (dose 0.40 uM) it was 0.278 log2 fold change; in the experiment with ENR+CD organoids (dose 2.00 uM), 0.212 log2 fold change; with ENR+CD organoids (dose 10.00 uM) it was −1.033 log2 fold change. The Z.CTG with ENR+CD organoids (dose 0.08 uM) was 0.407; with ENR+CD organoids (dose 0.40 uM), 0.665; in the experiment with ENR+CD organoids (dose 2.00 uM), 0.506; in the experiment on ENR+CD organoids (dose 10.00 uM), −2.468. The Dose.FC.LYZ.S in experiment [2] (dose 0.08 uM) is on record as 0.159 log2 fold change; in experiment [2] (dose 0.40 uM), 0.088 log2 fold change; in experiment [2] (dose 2.00 uM), 0.011 log2 fold change; in experiment [2] (dose 10.00 uM) it was −0.317 log2 fold change.
For `Oc1ccc(Nc2nc(-c3ccc(Cl)cc3)cs2)cc1` [SKI II], the Dose.FC.LYZ.NS in experiment [1] (dose 0.08 uM) is 0.078 log2 fold change; in experiment [1] (dose 0.40 uM), 0.219 log2 fold change; in experiment [1] (dose 2.00 uM), 0.074 log2 fold change; in experiment [1] (dose 10.00 uM), −0.156 log2 fold change. The Z.LYZ.NS is listed as 0.683 in experiment [1] (dose 0.08 uM), 1.906 in experiment [1] (dose 0.40 uM), 0.647 in experiment [1] (dose 2.00 uM) and −1.362 in experiment [1] (dose 10.00 uM). Moreover, the Dose.FC.CTG is reported as 0.293 log2 fold change in the experiment on ENR+CD organoids (dose 0.08 uM), 0.222 log2 fold change in the experiment on ENR+CD organoids (dose 0.40 uM), 0.198 log2 fold change in the experiment on ENR+CD organoids (dose 2.00 uM) and −0.336 log2 fold change with ENR+CD organoids (dose 10.00 uM). The Z.CTG in the experiment on ENR+CD organoids (dose 0.08 uM) is given as 0.699; in the experiment on ENR+CD organoids (dose 0.40 uM) it was 0.531; in the experiment with ENR+CD organoids (dose 2.00 uM), 0.473; with ENR+CD organoids (dose 10.00 uM), −0.802. For the same molecule, the Dose.FC.LYZ.S in experiment [2] (dose 0.08 uM) is listed as 0.090 log2 fold change; in experiment [2] (dose 0.40 uM), 0.123 log2 fold change; in experiment [2] (dose 2.00 uM) it was 0.061 log2 fold change; in experiment [2] (dose 10.00 uM), −0.191 log2 fold change.
As for `O=C1NC(=O)/C(=C/c2cccc(C(F)(F)F)c2)S1` [SMI-4a], the Dose.FC.LYZ.NS in experiment [1] (dose 0.08 uM) is listed as 0.022 log2 fold change; in experiment [1] (dose 0.40 uM), −0.060 log2 fold change; in experiment [1] (dose 2.00 uM) it was 0.032 log2 fold change; in experiment [1] (dose 10.00 uM), −0.074 log2 fold change. Also, the Z.LYZ.NS is 0.188 in experiment [1] (dose 0.08 uM), −0.524 in experiment [1] (dose 0.40 uM), 0.283 in experiment [1] (dose 2.00 uM) and −0.643 in experiment [1] (dose 10.00 uM). Further, the Dose.FC.CTG was −0.153 log2 fold change in the experiment with ENR+CD organoids (dose 0.08 uM), −0.317 log2 fold change in the experiment on ENR+CD organoids (dose 0.40 uM), −0.332 log2 fold change in the experiment with ENR+CD organoids (dose 2.00 uM) and −0.327 log2 fold change in the experiment with ENR+CD organoids (dose 10.00 uM). Also, the Z.CTG in the experiment with ENR+CD organoids (dose 0.08 uM) was −0.366; in the experiment with ENR+CD organoids (dose 0.40 uM) it was −0.758; in the experiment with ENR+CD organoids (dose 2.00 uM) it was −0.793; in the experiment on ENR+CD organoids (dose 10.00 uM) it was −0.781. For the same molecule, the Dose.FC.LYZ.S in experiment [2] (dose 0.08 uM) is given as 0.036 log2 fold change; in experiment [2] (dose 0.40 uM), −0.063 log2 fold change; in experiment [2] (dose 2.00 uM), −0.042 log2 fold change; in experiment [2] (dose 10.00 uM), −0.134 log2 fold change.
In the case of `CC(C)(C)c1cnc(CSc2cnc(NC(=O)C3CCNCC3)s2)o1` [SNS-032 (BMS-387032)], the Dose.FC.LYZ.NS in experiment [1] (dose 0.08 uM) is 0.049 log2 fold change; in experiment [1] (dose 0.40 uM), −0.143 log2 fold change; in experiment [1] (dose 2.00 uM) it was −0.276 log2 fold change; in experiment [1] (dose 10.00 uM), −0.254 log2 fold change. Also, the Z.LYZ.NS is on record as 0.428 in experiment [1] (dose 0.08 uM), −1.241 in experiment [1] (dose 0.40 uM), −2.399 in experiment [1] (dose 2.00 uM) and −2.214 in experiment [1] (dose 10.00 uM). Further, the Dose.FC.CTG in the experiment with ENR+CD organoids (dose 0.08 uM) was −0.075 log2 fold change; with ENR+CD organoids (dose 0.40 uM), −0.083 log2 fold change; in the experiment with ENR+CD organoids (dose 2.00 uM), −0.915 log2 fold change; with ENR+CD organoids (dose 10.00 uM), −1.009 log2 fold change. Further, the Z.CTG in the experiment on ENR+CD organoids (dose 0.08 uM) is −0.180; in the experiment on ENR+CD organoids (dose 0.40 uM), −0.198; in the experiment with ENR+CD organoids (dose 2.00 uM) it was −2.186; in the experiment on ENR+CD organoids (dose 10.00 uM), −2.411. For the same molecule, the Dose.FC.LYZ.S is given as 0.070 log2 fold change in experiment [2] (dose 0.08 uM), −0.206 log2 fold change in experiment [2] (dose 0.40 uM), −0.301 log2 fold change in experiment [2] (dose 2.00 uM) and −0.361 log2 fold change in experiment [2] (dose 10.00 uM).
On to `Oc1c2ccccc2c2c3c(cccc13)N=N2` [SP600125], for which the Dose.FC.LYZ.NS turned out to be 0.135 log2 fold change in experiment [1] (dose 0.08 uM), 0.027 log2 fold change in experiment [1] (dose 0.40 uM), 0.152 log2 fold change in experiment [1] (dose 2.00 uM) and 0.022 log2 fold change in experiment [1] (dose 10.00 uM). For the same molecule, the Z.LYZ.NS in experiment [1] (dose 0.08 uM) turned out to be 1.174; in experiment [1] (dose 0.40 uM) it was 0.232; in experiment [1] (dose 2.00 uM), 1.321; in experiment [1] (dose 10.00 uM), 0.187. The Dose.FC.CTG is listed as 0.197 log2 fold change with ENR+CD organoids (dose 0.08 uM), 0.145 log2 fold change in the experiment on ENR+CD organoids (dose 0.40 uM), 0.103 log2 fold change with ENR+CD organoids (dose 2.00 uM) and −0.020 log2 fold change with ENR+CD organoids (dose 10.00 uM). In addition, the Dose.FC.LYZ.S came to 0.188 log2 fold change in experiment [2] (dose 0.08 uM), 0.092 log2 fold change in experiment [2] (dose 0.40 uM), 0.090 log2 fold change in experiment [2] (dose 2.00 uM) and 0.084 log2 fold change in experiment [2] (dose 10.00 uM).
`O=C(Nc1cc(C(F)(F)F)ccc1N1CCCCC1)c1ccncc1` [SRPIN340]: the Dose.FC.LYZ.NS in experiment [1] (dose 0.08 uM) is given as 0.115 log2 fold change; in experiment [1] (dose 0.40 uM) it was 0.040 log2 fold change; in experiment [1] (dose 2.00 uM), 0.097 log2 fold change; in experiment [1] (dose 10.00 uM), 0.022 log2 fold change. The Z.LYZ.NS in experiment [1] (dose 0.08 uM) is listed as 1.004; in experiment [1] (dose 0.40 uM), 0.348; in experiment [1] (dose 2.00 uM) it was 0.846; in experiment [1] (dose 10.00 uM) it was 0.192. Also, the Dose.FC.CTG with ENR+CD organoids (dose 0.08 uM) is given as 0.421 log2 fold change; with ENR+CD organoids (dose 0.40 uM) it was 0.445 log2 fold change; in the experiment on ENR+CD organoids (dose 2.00 uM), 0.453 log2 fold change; in the experiment with ENR+CD organoids (dose 10.00 uM), 0.467 log2 fold change. Moreover, the Z.CTG in the experiment with ENR+CD organoids (dose 0.08 uM) is on record as 1.005; with ENR+CD organoids (dose 0.40 uM), 1.063; in the experiment with ENR+CD organoids (dose 2.00 uM), 1.083; in the experiment with ENR+CD organoids (dose 10.00 uM) it was 1.115. For the same molecule, the Dose.FC.LYZ.S in experiment [2] (dose 0.08 uM) was determined as 0.112 log2 fold change; in experiment [2] (dose 0.40 uM) it was 0.098 log2 fold change; in experiment [2] (dose 2.00 uM) it was 0.100 log2 fold change; in experiment [2] (dose 10.00 uM) it was 0.078 log2 fold change.
